# Reference: US20240226227A9, “BONE DISEASE TREATMENT” (The University of Birmingham, priority 2019, published 2024)
# How the values were obtained:
# [1] = tested on: osteoclasts and chondroclasts in tibia of wild-type mice; assay: TRAP staining of decalcified tibia sections, osteoclast and chondroclast counts; format: in vivo, mouse; conditions: daily injections for 14 days, vs PBS
# Description: WT mice were housed in the Biomedical Services Unit at the University of Birmingham. Mice were used between 6 and 16 weeks of age. • 1. Homeostasis—Six-week-old male wild-type mice were treated with or without daily intraperitoneal (i.p.) injections of PEPITEM (300 μg) for 2 weeks. Mice were culled at 2 weeks to examine the effect of PEPITEM on bone homeostasis in young resting bones. • 2. Ovariectomy (model of age-related osteoporosis)—Twelve-week-old female wild-type mice were subjected to ovariectomy (OVX). Two weeks post-surgery, mice were treated with or without daily i.p. injections of PEPITEM (300 μg) for 2 weeks. Mice were culled at 2 weeks to obtain baseline bone loss measurements, or at 4 weeks to examine the effect of PEPITEM on OVX-induced bone loss. • 3. […]
# For analysis of whole hind limb sections, Zen Blue software (ZEISS, Cambridge, UK) was used to break whole leg scans into regions of 20 μm by 20 μm, which were saved as images (JPEG) and opened on ImageJ™ (National institute of health (NIH); Maryland, USA). […] Osteoclasts were counted per region using ImageJ™ count maxima tool, where maxima were defined according to noise tolerance to neighboring squares and given as total number of osteoclasts per section. […]
# [2] = tested on: primary human osteoblasts; assay: Alkaline phosphatase activity (mineralization), primary human osteoblasts; format: cell-based; conditions: 10 ng/ml PEPITEM, vs untreated cells, paired t-test
# Description: Human osteoarthritis subchondral joint tissue was obtained at the time of total knee and hip joint replacement operations from the Royal Orthopaedic Hospital (Birmingham). To isolate primary osteoblasts, cartilage was removed from the femoral condyles and tibial plateaus and cut into 2 mm^2 pieces. Samples were kept in media and cleaned of fat. Media contains DMEM (Sigma™, D6546), FCS (10%), GPS (1%), Non-essential amino acid (1%; Sigma™, M7145), β-glycerophosphate (2 mM; Sigma™—G9422) and L-Ascorbic acid (50 μg/ml; Sigma™, A5960). Bone chips were placed in T75 flasks in 10 ml of media, replacing media every 2-3 days. Main outgrowth occurs between 10-14 days, after which chips were placed in new flasks. […]
# (§1) Osteoblasts were cultured in mineralization differentiation media in the presence or absence of PEPITEM (10 ng/ml) over a 21-day period, dependent on cell source. Mineralization was assessed by quantifying the amount of alizarin red (nM) or the level of alkaline phosphate activity (absorbance at 405 nm) per condition.
# To measure alkaline phosphatase activity, cells were washed in PBS before being lysed in 100 μl of RIPA buffer (Thermo Fisher™, R0278) for 15 minutes on ice. […] The plate was wrapped in foil and left to run for 45 minutes at 37° C. in an incubated shaker (SciQuip™; Shropshire, UK) before being quantified using a Synergy HT plate reader (BioTek™) with absorbance set at 405 nm.
# [3] = tested on: primary murine osteoblast cells; assay: Alizarin red mineralization assay, primary murine osteoblasts; format: cell-based, mouse; conditions: 10 ng/ml PEPITEM, vs untreated cells, paired t-test
# Description: Day 3-5 WT mouse pups were culled via decapitation and heads were washed briefly in 70% ethanol and kept hydrated in αMEM media supplemented with 2 mM L-Glutamine, 100 U/ml Penicillin and 100 μg/ml Streptomycin. Skin was removed from around calvaria using forceps, and the calvaria was dissected out and cleaned of any contaminating tissue. Calvaria were added to αMEM media supplemented with 1 mg/ml of collagenase d (Roche™, Basel, Switzerland, COLLD-RO). Tubes were then agitated at 37° C. for 10 minutes and the media discarded. αMEM media supplemented with 1 mg/ml of collagenase d was again added to calvaria and shaken at 37° C. for 30 minutes. […] Cells on ice were then spun down at 300 g for 4 minutes, resuspended in 1 ml of Basal media and counted using a haemocytometer. […]
# as §1
# (§2) Alizarin red analysis was performed following the manufacturer's instructions (Caltag+Medsystems™, Buckingham, UK, SC8678). […] Alizarin red was quantified using ImageJ™ (NIH) by removing backing, converting to a binary image and measuring area fraction stained. […]
# [4] = tested on: long bones of wild-type mice; assay: Bone homeostasis in young healthy mice, microCT of long bones; format: in vivo, mouse; conditions: daily i.p. 300 μg for 14 days, vs PBS
# Description: (§3) All experiments were performed in accordance with UK Home Office regulations. For the animal studies, in each experiment wild-type (WT) animals were allocated at random to different experimental groups. Importantly, mice from the same litter were randomly distributed amongst the experimental groups, and where possible, they were equally distributed amongst experimental groups. Injections of peptide were carried out at the same time of day, with identical reagents when possible. The investigators were not blinded to allocation during experiments and outcome assessment. All samples analyzed were included in the study.
# (§4) WT mice were housed in the Biomedical Services Unit at the University of Birmingham. Mice were used between 6 and 16 weeks of age. • 1. Homeostasis—Six-week-old male wild-type mice were treated with or without daily intraperitoneal (i.p.) injections of PEPITEM (300 μg) for 2 weeks. Mice were culled at 2 weeks to examine the effect of PEPITEM on bone homeostasis in young resting bones. • 2. Ovariectomy (model of age-related osteoporosis)—Twelve-week-old female wild-type mice were subjected to ovariectomy (OVX). Two weeks post-surgery, mice were treated with or without daily i.p. injections of PEPITEM (300 μg) for 2 weeks. Mice were culled at 2 weeks to obtain baseline bone loss measurements, or at 4 weeks to examine the effect of PEPITEM on OVX-induced bone loss. • 3. Analysis of murine bone parameters—Histomorphometry analysis was performed on long bones (femur; tibia) and/or spine to determine the effects of PEPITEM on the structural architecture of the tissue, cellular distribution and bone volume, including TRAP and Toluidine blue staining for osteoclasts and osteoblasts respectively. For information on these staining methods, see Das, P. et al., PNAS, 2018, 115(43), E10137-E10146 and Waddington, R. J. and Sloan, A. J. eds. Tissue Engineering and Regeneration in Dentistry: Current Strategies. West Sussex: John Wiley & Sons. Femurs were subjected to a 3-point bending test using a Bose 5500 (Bose) to determine the stiffness of the bones and the force required to fracture the bone. For more information on the 3-point bending test method, see Huesa, C. et al., Bone, 2011, 48(5), 1066-1074.
# [5] = tested on: long bones of wild-type mice; assay: 3-point bending test of long bones ex vivo after treatment of mice; format: in vivo, mouse; conditions: daily injections for 14 days, vs PBS
# Description: as §4
# [6] = tested on: vertebra of wild-type mice; assay: Bone homeostasis in young healthy mice, microCT of vertebra; format: in vivo, mouse; conditions: daily i.p. 300 μg for 14 days, vs PBS
# Description: as §3, §4
# [7] = tested on: murine osteoblast cell line MC3T3; assay: Alizarin red mineralization assay, MC3T3 osteoblast cell line; format: cell-based, mouse; conditions: MC3T3 cells, 10 ng/ml PEPITEM in differentiation media, up to 21 days, vs untreated cells
# Description: The spontaneously immortalised murine MC3T3-E1 cell line (ATCC, England, UK, CRL-2593) was brought up from liquid nitrogen and cultured in basal media made up of: αMEM media (Sigma-Aldrich™, St. Louis, MO, USA, M8042) supplemented with 2 mM L-Glutamine, 100 U/ml Penicillin and 100 μg/ml Streptomycin (all from Sigma-Aldrich™, G1146) and fetal bovine serum [(FBS) Biosera™, East Sussex, UK, FB1001]. […] Mineralisation was assessed using an Alizarin red staining quantification assay and ALP activity.
# as §1, §2
# [8] = tested on: ovariectomized wild-type mice; assay: Ovariectomy model of age-related osteoporosis, microCT of long bones; format: in vivo, mouse; conditions: OVX mice
# Description: as §3, §4
# [9] = long bones, daily i.p. 300 μg for 2 weeks from 2 weeks post surgery, vs untreated
substance,measurement,setting,value
PEPITEM (SVTEQGAELSNEER; listed as Homo sapiens),number of chondroclasts per μm,[1],reduced
same,number of osteoclasts per mm^2 within the tibia,[1],significantly reduces
same,osteoblast mineralization (alkaline phosphatase activity),[2],significantly increased
same,osteoblast mineralization (Alizarin Red staining),[3],significantly increased
same,bone volume to trabecular bone volume ratio (BV/TV),[4],significantly increased
same,trabecular number,[4],significantly increased
same,trabecular separation,[4],decreased
same,trabecular thickness,[4],significantly increased
same,bending force,[5],significantly increased
same,fracture force,[5],significantly increased
same,stiffness of the bone,[5],significantly increased
same,bone volume to trabecular bone volume ratio (BV/TV),[6],significantly increased
same,trabecular number,[6],significantly increased
same,trabecular separation,[6],decreased
same,trabecular thickness,[6],significantly increased
same,production of bone mineral (Alizarin Red staining),[7],stimulates the production of bone mineral
same,additional bone loss after ovariectomy,"[8]; 4 weeks post surgery, compared to 2-week untreated (baseline) mice",prevented additional bone loss
same,bone volume to trabecular bone volume ratio (BV/TV),[8]; [9],significantly increased
same,trabecular number,[8]; [9],significantly increased
same,trabecular separation,[8]; [9],decreased
same,trabecular thickness,[8]; [9],significantly increased
